pEC50: −log10 of the molar value.
System: HT-1080 cells
Experiment: HT-1080 cell viability assay (ferroptosis induced by RSL3, Cell Titer-Glo)
Assay type: cell-based
Conditions: ferroptosis inducer RSL3, 20 hours, ferroptosis inhibitory activity
Description: Example 2. Determination of EC50 Values in HT-1080 Cell Viability Assay
HT-1080 (ATCC, CCL-121) cells (6000 in 100 μl) were seeded in 96-well plates (Corning) and cultured in a 37° C. incubator with a humidified atmosphere of 5% CO2 for overnight. Cells were then treated with ferroptosis inducer RSL3 (TargetMol) and a 3-fold, 10-point serial dilution series of compounds with 1.1 μM as the highest concentration, for 20 hours. Cell viability was assessed using the Cell Titer-Glo Kit (Promega). The luminescence intensity was measured with a microplate reader (Envision, PerkinElmer), and cell viability was calculated by normalizing the data to untreated controls. The EC50 values of the compounds (e.g., Compounds 1-573 and 574-661) were calculated in GraphPad Prism (GraphPad Software, Inc., San Diego, CA, USA). The curves were fitted using a non-linear regression model with a sigmoidal dose response.

[1] = Homo sapiens, HT-1080, 20 h, Table 3
[2] = Homo sapiens, HT-1080, 20 h, Table 2

Row | Structure (SMILES) | pEC50 [2] | also measured
1 | Cc1nc(N2CC(C)OC(C(F)(F)F)C2)ccc1NC[C@H]1CC[C@@H](N)CC1 (stereo partly drawn) [Compound 598, N-(((1s,4s)-4-aminocyclohexyl)methyl)-2-methyl-6-(2-methyl-6-(trifluoromethyl)morpholino)pyridin-3-amine] |  | pEC50 [1]: 7.00 to 10.00
2 | Cc1nc(N2C[C@@H](C)O[C@@H](C)C2)ccc1NC1CCCC(N)CCC1 (stereo partly drawn) [Compound 631, N1-(6-((2R,6S)-2,6-dimethylmorpholino)-2-methylpyridin-3-yl)cyclooctane-1,5-diamine] |  | pEC50 [1]: 7.00 to 10.00
3 | CC1(C)CCC(c2ccc(NC3CNC(=O)C3)cc2)CC1 (stereo not drawn) [Compound 141, 4-((4-(4,4-dimethylcyclohexyl)phenyl)amino)pyrrolidin-2-one] | 6.00 to 7.00 | 
4 | CC1(C)CCC(c2ccc(NC3CC(NC(=O)[C@H]4CNC(=O)N4)C3)cc2)CC1 (stereo partly drawn) [Compound 129, (R)—N-(3-((4-(4,4-dimethylcyclohexyl)phenyl)amino)cyclobutyl)-2-oxoimidazolidine-4-carboxamide] | 6.00 to 7.00 | 
5 | CC(C)(C)c1ccc(NC2CCC(N)(C(N)=O)CC2)cc1 (stereo not drawn) [Compound 212, 1-amino-4-((4-(tert-butyl)phenyl)amino)cyclohexane-1-carboxamide] | 5.00 to 6.00 | 
6 | NCCC1CCC(Nc2ccc3c(c2)CCC3)CC1 (stereo not drawn) [Compound 264, N-(4-(2-aminoethyl)cyclohexyl)-2,3-dihydro-1H-inden-5-amine] | 7.00 to 10.00 | 
7 | Cc1cc(C)c(NC2CCC(N)CC2)c(C)c1 (stereo not drawn) [Compound 219, N1-mesitylcyclohexane-1,4-diamine] | 5.00 to 6.00 | 
8 | NC1CCC(Nc2ccc(N3CCC(C(F)(F)F)CC3)c(Cl)c2)CC1 (stereo not drawn) [Compound 67, N1-(3-chloro-4-(4-(trifluoromethyl)piperidin-1-yl)phenyl)cyclohexane-1,4-diamine] | 7.00 to 10.00 | 
9 | CC1(C)CCC(c2ccc(NC3CCC(NC(=O)[C@H]4CNC(=O)N4)CC3)cc2)CC1 (stereo partly drawn) [Compound 156C] | 7.00 to 10.00 | 
10 | CCC(C)(C)c1ccc(NC2CCC(N)CC2)cc1 (single isomer, unassigned) [Compound 232A, N1-(4-(tert-pentyl)phenyl)cyclohexane-1,4-diamine] |  | pEC50 (Homo sapiens, Table 2): 7.00 to 10.00
11 | CCC(C)c1ccc(NC2CCC(N)CC2)cc1 (single isomer, unassigned) [Compound 289A, 1-N-(4-(sec-butyl)phenyl)cyclohexane-1,4-diamine] |  | pEC50 (Table 2): 7.00 to 10.00
12 | CC(C)(CN)Nc1ccc(C(C)(C)C)cc1 [Compound 229] | 5.00 to 6.00 | 
13 | N[C@H]1CC[C@@H](CNc2ccc3c(c2)CCC3)CC1 [Compound 307, N-(((1s,4s)-4-aminocyclohexyl)methyl)-2,3-dihydro-1H-inden-5-amine] | 7.00 to 10.00 | 
14 | CC1(C)CCC(c2ccc(NC3CCC(CCNC(=O)[C@H]4CC(=O)NC(=O)N4)CC3)cc2)CC1 (stereo partly drawn) [Compound 244A, (R)—N-(2-(4-((4-(4,4-dimethylcyclohexyl)phenyl)amino)cyclohexyl)ethyl)-2,6-dioxohexahydro pyrimidine-4-carboxamide] | 7.00 to 10.00 | 
15 | Cc1nc(N2CC(C)OC(C)C2)c(F)cc1NC1C2CC3CC1CC(CN)(C3)C2 (single isomer, unassigned) [Compound 539A, N-((2r,5s)-5-(aminomethyl)adamantan-2-yl)-6-(2,6-dimethylmorpholino)-5-fluoro-2-methylpyridin-3-amine] |  | pEC50 (Table 2): 7.00 to 10.00
16 | CC1(C)CCC(c2ccc(NC3CCN(C(=O)[C@H]4CNC(=O)N4)CC3)cc2)CC1 [Compound 154, (R)-4-(4-((4-(4,4-dimethylcyclohexyl)phenyl)amino)piperidine-1-carbonyl) imidazolidin-2-one] | 6.00 to 7.00 | 
17 | CNCC1CCC(Nc2ccc(C3CCC(C)(C)CC3)cc2)CC1 (stereo not drawn) [Compound 86, 4-(4,4-dimethylcyclohexyl)-N-(4-((methylamino)methyl)cyclohexyl)aniline] | 7.00 to 10.00 | 
18 | N[C@H]1CC[C@@H](CNc2ccc3c(c2)CCCC3)CC1 [Compound 309, N-(((1r,4r)-4-aminocyclohexyl)methyl)-5,6,7,8-tetrahydronaphthalen-2-amine] | 7.00 to 10.00 | 
19 | CC(C)(C)c1ccc(NC2CCC(NCCN)CC2)cc1 (stereo not drawn) [Compound 268, 1-N-(2-aminoethyl)-N4-(4-(tert-butyl)phenyl)cyclohexane-1,4-diamine] | 7.00 to 10.00 | 
20 | CC1(C)CCC(c2ccc(NC3CC(C(N)=O)C3)cc2)CC1 (stereo not drawn) [Compound 145, 3-((4-(4,4-dimethylcyclohexyl)phenyl)amino)cyclobutane-1-carboxamide] | 7.00 to 10.00 | 
21 | CCCc1ccc(NC2CCC(N)CC2)cc1 (single isomer, unassigned) [Compound 135A, N1-(4-propylphenyl)cyclohexane-1,4-diamine] | 6.00 to 7.00 | 
22 | CCC(CC)c1ccc(NC2CCC(CN)CC2)cc1 (single isomer, unassigned) [Compound 81A, N-(4-(aminomethyl)cyclohexyl)-4-(pentan-3-yl)aniline] | 6.00 to 7.00 | 
23 | NC1CCC(Nc2ccc(N3CCC(C(F)(F)F)CC3)c(F)c2)CC1 (stereo not drawn) [Compound 68, N1-(3-fluoro-4-(4-(trifluoromethyl)piperidin-1-yl)phenyl)cyclohexane-1,4-diamine] | 7.00 to 10.00 | 
24 | CCCCCNc1ccc(N2CCC(C(F)(F)F)CC2)cc1 [Compound 15, N-pentyl-4-(4-(trifluoromethyl)piperidin-1-yl)aniline] | 7.00 to 10.00 | 
25 | CCC(C)(C)c1ccc(NC2CCC(NCCO)CC2)cc1 (single isomer, unassigned) [Compound 295A, 2-((4-((4-(tert-pentyl)phenyl)amino)cyclohexyl)amino)ethan-1-ol] |  | pEC50 (Table 2): 6.00 to 7.00
26 | CC1CN(c2ccc(NC3CC4(CC(N)C4)C3)cc2F)CC(C)N1CC(F)(F)F (stereo not drawn) [Compound 186, N2-(4-(3,5-dimethyl-4-(2,2,2-trifluoroethyl)piperazin-1-yl)-3-fluorophenyl) spiro-[3.3]heptane-2,6-diamine] |  | pEC50 (Table 2): 6.00 to 7.00
27 | NC1CCC(Nc2cnc(N3CCC(C(F)(F)F)CC3)nc2)CC1 (stereo not drawn) [Compound 42, N1-(2-(4-(trifluoromethyl)piperidin-1-yl)pyrimidin-5-yl)cyclohexane-1,4-diamine] | 7.00 to 10.00 | 
28 | COCCN(C)CCNc1ccc(C(C)(C)C)cc1 [Compound 211, N1-(4-(tert-butyl)phenyl)-N2-(2-methoxyethyl)-N2-methylethane-1,2-diamine] | 5.00 to 6.00 | 
29 | Cc1cc(NC2CC3(CC(N)C3)C2)ccc1N1CCN(CC(F)(F)F)CC1 (stereo not drawn) [Compound 574, N^2-(3-methyl-4-(4-(2,2,2-trifluoroethyl)piperazin-1-yl)phenyl)spiro/3.3/heptane-2.6-diamine] |  | pEC50 [1]: 7.00 to 10.00
30 | CC(C)C1CCN(c2ccc(NC3CCC(N)CC3)cc2)CC1 (stereo not drawn) [Compound 63, N1-(4-(4-isopropylpiperidin-1-yl)phenyl)cyclohexane-1,4-diamine] | 7.00 to 10.00 | 

The next lines start with results.

Row | pEC50 [2] | Structure (SMILES) | also measured
31 | 7.00 to 10.00 | Cc1cc(NC2CCC(CN)CC2)cc(C)c1C (stereo not drawn) [Compound 312, N-(4-(aminomethyl)cyclohexyl)-3,4,5-trimethylaniline] | 
32 | 7.00 to 10.00 | CCN(CC)c1ccc(NC[C@H]2CC[C@H](N)CC2)cc1 [Compound 436] | 
33 | 7.00 to 10.00 | Cc1nc(N2CCOC(C)C2)ccc1NC1C2CC3CC1CC(N)(C3)C2 (stereo not drawn) [Compound 518, N4-(2-methyl-6-(2-methylmorpholino)pyridin-3-yl)adamantane-1,4-diamine] | 
34 | 7.00 to 10.00 | C[C@@H]1CN(c2ccc3cc(NC4CC5(CC(N)C5)C4)ccc3n2)C[C@H](C)O1 (stereo partly drawn) [Compound 565, N2-(2-((2S,6R)-2,6-dimethylmorpholino)quinolin-6-yl)spiro[3.3]heptane-2,6-diamine] | 
35 | 5.00 to 6.00 | CC1CN(c2ccc(NC3CC(N)C3)c(F)c2)CC(C)O1 (stereo not drawn) [Compound 462, N1-(4-(2,6-dimethylmorpholino)-2-fluorophenyl)cyclobutane-1,3-diamine] | 
36 | 7.00 to 10.00 | CC1CN(c2ccc(NC[C@H]3CC[C@H](N)CC3)c(Cl)c2)CC(C)O1 (stereo partly drawn) [Compound 483, N-(((1r,4r)-4-aminocyclohexyl)methyl)-2-chloro-4-(2,6-dimethylmorpholino) aniline] | 
37 | 7.00 to 10.00 | CC(C)C1CCN(c2ncc(NC3CC4(CC(O)C4)C3)cn2)CC1 (stereo not drawn) [Compound 422, 6-((2-(4-isopropylpiperidin-1-yl)pyrimidin-5-yl)amino)spiro[3.3]heptan-2-ol] | 
38 | 6.00 to 7.00 | COc1cc(NC[C@H]2CC[C@H](N)CC2)ccc1N1C[C@@H](C)O[C@H](C)C1 (stereo in doubt) [Compound 496, N-(((1r,4R)-4-aminocyclohexyl)methyl)-4-((2S,6R)-2,6-dimethylmorpholino)-3-methoxyaniline] | 
39 | 7.00 to 10.00 | CC(C)(C)c1ccc(NC2CCC(CNCCO)CC2)cc1 (stereo not drawn) [Compound 322, 2-(((4-((4-(tert-butyl)phenyl)amino)cyclohexyl)methyl)amino)ethan-1-ol] | 
40 | 6.00 to 7.00 | COc1cc(NC[C@H]2CC[C@H](N)CC2)ccc1N1C[C@@H](C)O[C@@H](C)C1 [Compound 495, N-(((1r,4R)-4-aminocyclohexyl)methyl)-4-((2S,6R)-2,6-dimethylmorpholino)-3-methoxyaniline] | 
41 | 7.00 to 10.00 | Cc1nc(N2CC(C)OC(C)C2)ccc1NCCC1CCC(N)C1 (stereo not drawn) [Compound 490, N-(2-(3-aminocyclopentyl)ethyl)-6-(2,6-dimethylmorpholino)-2-methylpyridin-3-amine] | 
42 | 7.00 to 10.00 | COC1(C(F)(F)F)CCN(c2ccc(NC[C@H]3CC[C@H](N)CC3)cc2)CC1 [Compound 459, N-(((1r,4r)-4-aminocyclohexyl)methyl)-4-(4-methoxy-4-(trifluoromethyl)piperidin-1-yl)aniline] | 

— patent US20240360114A1 (SIRONAX LTD., priority 2021, published 2024)
